26 molecules from PubChem BioAssay (NCI) can be followed below.

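Results reflect a 48-hour exposure of cells in 96-well plates to compound at five concentrations. GI50: concentration for 50% inhibition of growth. TGI: concentration producing complete growth inhibition.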

One assay relates to SF-268 CNS. In words: NCI anticancer screen, dose series, 48 h.
`CCCCCCOc1ccc(C(=O)NOC)cc1` came in with a TGI greater than 100 µM.
The same measure, in the same setting: the figure for `NS(=O)(=O)c1cc(Cl)c(NC(=S)NC(=O)Nc2ccc(Cl)c(Cl)c2)c(Cl)c1` is greater than 100 µM; for `CCOP(=O)(OCC)C(c1ccc(F)cc1)N(C(=O)NC(F)(F)F)c1ccc(OC)cc1` (stereo not drawn) it is greater than 100 µM.
`O=C(O)CCC(=O)OC1N=C(c2ccccc2Cl)c2cc([N+](=O)[O-])ccc2NC1=O` (stereo not drawn) registered a TGI greater than 100 µM.
With `CO[C@H]1/C=C(/C)CCC[C@H](C)[C@H](O)[C@@H](C)C(=O)C(C)(C)[C@@H](O)CC(=O)O[C@@H]1/C(C)=C/c1csc(C)n1`, the GI50 was 0.0346 µM and the TGI was greater than 100 µM.
Turning to `OCCc1ccsc1-c1sc(-c2cc(CCO)c(-c3sccc3CCO)s2)cc1CCO`, the TGI turned out to be 14 µM.
On the same count and under the same terms, then `CCOC(=O)c1ccc(NCC#CCN2CCOCC2)cc1`, with greater than 100 µM; and `COc1ccc(-c2nc(SCC(=O)N/N=C/c3ccc(N(C)C)cc3)[nH]c2-c2ccc(OC)cc2)cc1`, with greater than 100 µM; and `CS(=O)(=O)OCC(CCl)(CCl)CCl`, with greater than 100 µM.
The same measure, in the same setting: the figure for `CC(=N/N=C/c1ccccn1)/C(C)=N/N=C(C)/C(C)=N/N=C(C)/C(C)=N/N=C(C)/C(C)=N\N=C\c1ccccn1` is greater than 100 µM; for `COc1ccc(C2=N/C(=C\c3ccccc3)C(=O)O2)cc1` it is greater than 100 µM; for `CCN(CC)CCN(C(=Nc1ccccc1)N1CCOCC1)c1ccccc1` it is greater than 100 µM.
The same measure, in the same setting: the figure for `COP(=O)(/C=C/c1cc(C(=O)OCc2ccccc2)n(S(=O)(=O)c2ccccc2)c1)OC` is greater than 100 µM.
Turning to `CCNC(=O)Cc1nc2c(N)ncnc2n1C1OC(CO)C(O)C1O` (stereo not drawn), the TGI was greater than 100 µM.
Still for that read-out and setting: then `Cc1cc(C(=O)CCCCOc2ccc(C3=NCCO3)cc2)c(C)n1C`, with greater than 100 µM.
The same measure, in the same setting: then `COc1cc(/C=C/C(=O)CC(=O)/C=C/c2ccc(OC(=O)CCCCC3CCSS3)c(OC)c2)ccc1OC(=O)CCCCC1CCSS1` (stereo not drawn), with greater than 100 µM; and `[O-][n+]1ccccc1Sc1nc(Sc2cccc[n+]2[O-])nc(Sc2cccc[n+]2[O-])n1`, with 10.1 µM; and `CC1(C)C2CCC1(C)[C@H](n1c(=O)n([C@@H]3CC4CCC3(C)C4(C)C)c(=O)n([C@@H]3CC4CCC3(C)C4(C)C)c1=O)C2`, with greater than 100 µM.
The same measure, in the same setting: the figure for `CSc1nsc(-c2ccccc2)[s+]1` is greater than 100 µM.

Another assay relates to T-47D breast. The assay can be described thus: NCI anticancer screen, dose series, 48 h.
As for `NS(=O)(=O)c1cc(Cl)c(NC(=S)NC(=O)Nc2ccc(Cl)c(Cl)c2)c(Cl)c1`, the TGI is greater than 100 µM.
`O=C(O)CCC(=O)OC1N=C(c2ccccc2Cl)c2cc([N+](=O)[O-])ccc2NC1=O` (stereo not drawn) had a TGI greater than 100 µM.
With `CO[C@H]1/C=C(/C)CCC[C@H](C)[C@H](O)[C@@H](C)C(=O)C(C)(C)[C@@H](O)CC(=O)O[C@@H]1/C(C)=C/c1csc(C)n1`, the GI50 was 0.0668 µM and the TGI was greater than 100 µM.
Turning to `CCOC(=O)c1ccc(NCC#CCN2CCOCC2)cc1`, the TGI is greater than 100 µM.
On the same count and under the same terms, the figure for `COc1ccc(-c2nc(SCC(=O)N/N=C/c3ccc(N(C)C)cc3)[nH]c2-c2ccc(OC)cc2)cc1` is greater than 100 µM; for `CS(=O)(=O)OCC(CCl)(CCl)CCl` it is greater than 100 µM; for `CC(=N/N=C/c1ccccn1)/C(C)=N/N=C(C)/C(C)=N/N=C(C)/C(C)=N/N=C(C)/C(C)=N\N=C\c1ccccn1` it is greater than 100 µM.
With `CCN(CC)CCN(C(=Nc1ccccc1)N1CCOCC1)c1ccccc1`, the TGI is greater than 100 µM.
On the same count and under the same terms, then `COP(=O)(/C=C/c1cc(C(=O)OCc2ccccc2)n(S(=O)(=O)c2ccccc2)c1)OC`, with greater than 100 µM; and `CCNC(=O)Cc1nc2c(N)ncnc2n1C1OC(CO)C(O)C1O` (stereo not drawn), with greater than 100 µM; and `Cc1cc(C(=O)CCCCOc2ccc(C3=NCCO3)cc2)c(C)n1C`, with 65.6 µM.
On the same count and under the same terms, the figure for `[O-][n+]1ccccc1Sc1nc(Sc2cccc[n+]2[O-])nc(Sc2cccc[n+]2[O-])n1` is 8.85 µM.
Still for that read-out and setting: then `CCCCC(C(=O)NCCNC(=O)CCC(=O)N(C)O)C(=O)NCCNC(=O)CCC(=O)N(C)O`, with greater than 100 µM; and `CC1(C)C2CCC1(C)[C@H](n1c(=O)n([C@@H]3CC4CCC3(C)C4(C)C)c(=O)n([C@@H]3CC4CCC3(C)C4(C)C)c1=O)C2`, with greater than 100 µM.

The next assay concerns UACC-62 melanoma. In words: NCI anticancer screen, dose series, 48 h.
Molecule `CCOC(=O)Cn1c(=O)c2nc(SC)sc2n(-c2ccccc2)c1=O` showed a TGI greater than 100 µM.
On the same count and under the same terms, then `O=c1c2sc(=S)n(-c3ccc(F)cc3)c2ncn1/N=C/c1ccc(F)cc1F`, with greater than 100 µM; and `COc1ccc2c(C)cc(=O)oc2c1OC`, with greater than 100 µM.
The same measure, in the same setting: the figure for `CC1CCC(C(=O)O)(C(Br)C(=O)O)CC1` (stereo not drawn) is greater than 100 µM.
`Cc1cc(N(CCOS(C)(=O)=O)CCOS(C)(=O)=O)ccc1C=O`: the TGI stood at 15.7 µM.
Molecule `CCCCCCOc1ccc(C(=O)NOC)cc1` displayed a TGI greater than 100 µM.
The same measure, in the same setting: then `NS(=O)(=O)c1cc(Cl)c(NC(=S)NC(=O)Nc2ccc(Cl)c(Cl)c2)c(Cl)c1`, with 90.2 µM.
Same read-out and setting: then `CCOC(=O)c1c(C)nc2c3ccccc3c(C#N)c(C)n12`, with greater than 100 µM.
`O=C(O)CCC(=O)OC1N=C(c2ccccc2Cl)c2cc([N+](=O)[O-])ccc2NC1=O` (stereo not drawn) returned a TGI greater than 100 µM.
For `CO[C@H]1/C=C(/C)CCC[C@H](C)[C@H](O)[C@@H](C)C(=O)C(C)(C)[C@@H](O)CC(=O)O[C@@H]1/C(C)=C/c1csc(C)n1`, the GI50 was 0.0287 µM and the TGI was greater than 100 µM.
`OCCc1ccsc1-c1sc(-c2cc(CCO)c(-c3sccc3CCO)s2)cc1CCO` came in with a TGI of 25.4 µM.
The molecule `CCOC(=O)c1ccc(NCC#CCN2CCOCC2)cc1` returned a TGI greater than 100 µM.
The molecule `COc1ccc(-c2nc(SCC(=O)N/N=C/c3ccc(N(C)C)cc3)[nH]c2-c2ccc(OC)cc2)cc1` came in with a TGI greater than 100 µM.
Same read-out and setting: then `CCN(CC)CCN(C(=Nc1ccccc1)N1CCOCC1)c1ccccc1`, with greater than 100 µM.
The same measure, in the same setting: then `COP(=O)(/C=C/c1cc(C(=O)OCc2ccccc2)n(S(=O)(=O)c2ccccc2)c1)OC`, with greater than 100 µM; and `CCNC(=O)Cc1nc2c(N)ncnc2n1C1OC(CO)C(O)C1O` (stereo not drawn), with greater than 100 µM.
Same read-out and setting: the figure for `COc1cc(/C=C/C(=O)CC(=O)/C=C/c2ccc(OC(=O)CCCCC3CCSS3)c(OC)c2)ccc1OC(=O)CCCCC1CCSS1` (stereo not drawn) is greater than 100 µM; for `[O-][n+]1ccccc1Sc1nc(Sc2cccc[n+]2[O-])nc(Sc2cccc[n+]2[O-])n1` it is 3.67 µM; for `CCCCC(C(=O)NCCNC(=O)CCC(=O)N(C)O)C(=O)NCCNC(=O)CCC(=O)N(C)O` it is greater than 100 µM.
As to `CSc1nsc(-c2ccccc2)[s+]1`, the TGI is greater than 100 µM.

In another assay the test system is OVCAR-5 ovarian. In words: NCI anticancer screen, dose series, 48 h.
`CCOC(=O)Cn1c(=O)c2nc(SC)sc2n(-c2ccccc2)c1=O` registered a TGI greater than 100 µM.
On the same count and under the same terms, then `O=c1c2sc(=S)n(-c3ccc(F)cc3)c2ncn1/N=C/c1ccc(F)cc1F`, with greater than 100 µM; and `COc1ccc2c(C)cc(=O)oc2c1OC`, with greater than 100 µM; and `CC1CCC(C(=O)O)(C(Br)C(=O)O)CC1` (stereo not drawn), with greater than 100 µM.
On the same count and under the same terms, then `Cc1cc(N(CCOS(C)(=O)=O)CCOS(C)(=O)=O)ccc1C=O`, with 33.8 µM; and `CCCCCCOc1ccc(C(=O)NOC)cc1`, with greater than 100 µM; and `NS(=O)(=O)c1cc(Cl)c(NC(=S)NC(=O)Nc2ccc(Cl)c(Cl)c2)c(Cl)c1`, with greater than 100 µM.
